Data from patent US20230391739A1, “ARYL DERIVATIVES FOR TREATING TRPM3 MEDIATED DISORDERS” (Katholieke Universiteit Leuven, priority 2020, published 2023).

target: T1, mouse TRPM3α2 (mTRPM3) ion channel (Mus musculus, UniProt J9SQF3); assay: TRPM3 ion channel driven Ca2+ uptake, Fluo-4 AM assay, PS-stimulated (mTRPM3); assay type: cell-based; conditions: TRPM3 overexpressing flip-in HEK293 cells stimulated with Pregnenolone sulfate (PS) 50 μM, activity ranges A, B, C
T1 construct: expressed in transfected cells; host or cells: flip-in HEK293
T1 sequence (J9SQF3 1-1709 isoform J9SQF3-12): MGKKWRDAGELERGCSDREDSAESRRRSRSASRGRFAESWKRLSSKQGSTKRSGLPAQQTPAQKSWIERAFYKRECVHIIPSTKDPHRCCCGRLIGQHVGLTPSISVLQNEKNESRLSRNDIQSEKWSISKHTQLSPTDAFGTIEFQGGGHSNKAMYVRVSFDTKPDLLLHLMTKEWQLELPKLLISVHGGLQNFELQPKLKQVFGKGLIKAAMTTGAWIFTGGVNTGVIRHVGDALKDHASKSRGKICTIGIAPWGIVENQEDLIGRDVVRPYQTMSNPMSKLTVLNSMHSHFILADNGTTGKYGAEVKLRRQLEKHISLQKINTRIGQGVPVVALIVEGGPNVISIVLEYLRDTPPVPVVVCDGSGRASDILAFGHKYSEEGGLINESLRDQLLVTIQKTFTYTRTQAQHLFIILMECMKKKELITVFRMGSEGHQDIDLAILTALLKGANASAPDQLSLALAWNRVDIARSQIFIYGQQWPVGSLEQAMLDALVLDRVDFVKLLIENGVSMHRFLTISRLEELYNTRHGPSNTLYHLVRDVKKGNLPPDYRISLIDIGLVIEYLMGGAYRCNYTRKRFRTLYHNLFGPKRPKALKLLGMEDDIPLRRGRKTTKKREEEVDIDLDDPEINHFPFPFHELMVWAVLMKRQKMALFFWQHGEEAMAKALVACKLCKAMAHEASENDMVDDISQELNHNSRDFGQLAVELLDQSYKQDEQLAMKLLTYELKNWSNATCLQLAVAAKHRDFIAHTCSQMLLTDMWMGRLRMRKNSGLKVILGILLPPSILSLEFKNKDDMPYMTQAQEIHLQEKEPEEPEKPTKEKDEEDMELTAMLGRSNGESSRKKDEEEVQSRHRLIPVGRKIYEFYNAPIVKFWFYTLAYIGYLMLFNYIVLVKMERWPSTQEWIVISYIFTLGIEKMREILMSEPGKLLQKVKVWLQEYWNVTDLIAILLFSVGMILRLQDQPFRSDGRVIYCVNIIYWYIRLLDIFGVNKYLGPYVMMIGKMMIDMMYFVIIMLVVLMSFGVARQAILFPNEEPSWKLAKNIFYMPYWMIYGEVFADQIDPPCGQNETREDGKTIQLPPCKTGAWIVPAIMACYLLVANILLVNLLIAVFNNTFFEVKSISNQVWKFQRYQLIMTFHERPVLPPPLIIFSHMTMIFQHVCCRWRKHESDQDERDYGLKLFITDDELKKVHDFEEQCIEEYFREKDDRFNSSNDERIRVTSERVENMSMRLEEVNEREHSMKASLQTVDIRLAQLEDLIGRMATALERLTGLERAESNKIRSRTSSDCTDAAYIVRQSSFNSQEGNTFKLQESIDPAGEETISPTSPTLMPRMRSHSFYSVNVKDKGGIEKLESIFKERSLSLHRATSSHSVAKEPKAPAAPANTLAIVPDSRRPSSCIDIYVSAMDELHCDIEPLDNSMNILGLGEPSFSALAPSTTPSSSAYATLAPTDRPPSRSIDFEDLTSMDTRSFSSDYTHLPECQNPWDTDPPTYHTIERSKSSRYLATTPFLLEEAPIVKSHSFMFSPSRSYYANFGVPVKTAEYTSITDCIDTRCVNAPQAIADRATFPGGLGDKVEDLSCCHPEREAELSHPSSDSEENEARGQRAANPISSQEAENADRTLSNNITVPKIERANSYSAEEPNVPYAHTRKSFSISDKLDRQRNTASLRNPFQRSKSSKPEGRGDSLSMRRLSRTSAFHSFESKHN
How it was run: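 Ca²⁺ influx through mouse TRPM3α2, opened by 50 μM pregnenolone sulfate, was tracked with Fluo-4 AM in stably transfected HEK293 cells read directly after seeding onto pre-dispensed compound.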

| SMILES | IC50 |
| --- | --- |
| Cc1oc2ccc(OC3CCc4ccccc43)cc2c1C(=O)O (stereo not drawn) [Cpd 011, 5-((2,3-dihydro-1H-inden-1-yl)oxy)-2-methylbenzofuran-3-carboxylic acid] | 1000 to 20000 nM |
| Cc1oc2ccc(OCc3ccccc3)cc2c1C(=O)NC1CCN(Cc2ccccc2)CC1 [Cpd 241, 5-(benzyloxy)-N-(1-benzylpiperidin-4-yl)-2-methylbenzofuran-3-carboxamide] | 1000 to 20000 nM |
| Cc1oc2ccc(OCc3ccccc3)cc2c1C(=O)NCC(c1ccccc1)N(C)C (stereo not drawn) [Cpd 216, 5-(benzyloxy)-N-(2-(dimethylamino)-2-phenylethyl)-2-methylbenzofuran-3-carboxamide] | 1000 to 20000 nM |
| COCc1oc2ccc(OCc3cccc(F)c3)cc2c1C(=O)O [Cpd 020, 5-((3-fluorobenzyl)oxy)-2-(methoxymethyl)benzofuran-3-carboxylic acid] | 1000 to 20000 nM |
| Cc1oc2ccc(OCc3ccccc3)cc2c1C(=O)NCC(O)c1cccnc1 (stereo not drawn) [Cpd 174, 5-(benzyloxy)-N-(2-hydroxy-2-(pyridin-3-yl)ethyl)-2-methylbenzofuran-3-carboxamide] | 1000 to 20000 nM |
| Cc1oc2cc(Cl)c(OCc3ccccc3)cc2c1C(=O)NC1CNCC1(F)F (single isomer, unassigned) [Cpd 300-En 2, 5-(benzyloxy)-6-chloro-N-(4,4-difluoropyrrolidin-3-yl)-2-methylbenzofuran-3-carboxamide] | > 20000 nM |
| Cc1oc2c(C)cc(OCc3ccccc3)cc2c1C(=O)NC1CNCC1(F)F (single isomer, unassigned) [Cpd 307-En 1, 5-(benzyloxy)-N-(4,4-difluoropyrrolidin-3-yl)-2,7-dimethylbenzofuran-3-carboxamide] | 1000 to 20000 nM |
| Cc1oc2ccc(OCc3ccccc3)cc2c1C(=O)NCCN1CCN(C)CC1 [Cpd 189, 5-(benzyloxy)-2-methyl-N-(2-(4-methylpiperazin-1-yl)ethyl)benzofuran-3-carboxamide] | 1000 to 20000 nM |
| Cc1oc2ccc(OCc3ccccc3)cc2c1C(=O)NC1CCN(C(=O)OC(C)(C)C)C(C)C1 (stereo not drawn) [Cpd 252, tert-butyl cis-4-(5-(benzyloxy)-2-methylbenzofuran-3-carboxamido)-2-methylpiperidine-1-carboxylate] | 1000 to 20000 nM |
| CCNC(=O)c1c(C)oc2ccc(OCc3ccccc3)cc12 [Cpd 038, 5-(benzyloxy)-N-ethyl-2-methylbenzofuran-3-carboxamide] | 1000 to 20000 nM |
| Cc1oc2ccc(OCc3ccccc3)cc2c1C(=O)N1CCC(C)CC1 [Cpd 067, (5-(benzyloxy)-2-methylbenzofuran-3-yl)(4-methylpiperidin-1-yl)methanone] | 1000 to 20000 nM |
| Cc1oc2ccc(OCc3ccccc3)cc2c1C(=O)N[C@H]1C[C@@H]2CN(C(=O)OC(C)(C)C)C[C@@H]2C1 [Cpd 259, tert-butyl trans-5-(5-(benzyloxy)-2-methylbenzofuran-3-carboxamido)hexahydrocyclopenta-[c]pyrrole-2(1H)-carboxylate] | 1000 to 20000 nM |
| Cc1oc2ccc(OCc3ccc(F)cc3)cc2c1C(=O)O [Cpd 009, 5-((4-fluorobenzyl)oxy)-2-methylbenzofuran-3-carboxylic acid] | 1000 to 20000 nM |
| Cc1oc2ccc(OCc3ccccc3)cc2c1C(=O)NS(C)(=O)=O [Cpd 063, 5-(benzyloxy)-2-methyl-N-(methylsulfonyl)benzofuran-3-carboxamide] | 1000 to 20000 nM |
| O=C(O)c1c(C2CCCC2)oc2ccc(OCc3ccccc3)cc12 [Cpd 023, 5-(benzyloxy)-2-cyclopentylbenzofuran-3-carboxylic acid] | > 20000 nM |
| Cc1oc2ccc(OCc3ccccc3F)cc2c1C(=O)NC(C)(C)C(N)=O [Cpd 315, N-(1-amino-2-methyl-1-oxopropan-2-yl)-5-((2-fluorobenzyl)oxy)-2-methylbenzofuran-3-carboxamide] | < 1000 nM |
| Cc1oc2ccc(OCc3ccccc3)cc2c1C(=O)NC1CCN(C)C(C)C1 (stereo not drawn) [Cpd 155, 5-(benzyloxy)-N-(1,2-dimethylpiperidin-4-yl)-2-methylbenzofuran-3-carboxamide] | < 1000 nM |
| Cc1oc2ccc(OCc3ccccc3)cc2c1C(=O)N[C@H]1CCN(C(=O)OC(C)(C)C)C1 [Cpd 239, tert-butyl (S)-3-(5-(benzyloxy)-2-methylbenzofuran-3-carboxamido)pyrrolidine-1-carboxylate] | 1000 to 20000 nM |
| Cc1oc2ccc(OCc3ccccc3)cc2c1C(=O)N[C@@H]1CCN(C(=O)OC(C)(C)C)[C@@H](C)C1 (racemic) [Cpd 251, tert-butyl trans-4-(5-(benzyloxy)-2-methylbenzofuran-3-carboxamido)-2-methylpiperidine-1-carboxylate] | < 1000 nM |
| Cc1oc2ccc(OCc3ccccc3)cc2c1C(=O)N[C@@H]1CCN(C(=O)OC(C)(C)C)C1 [Cpd 238, tert-butyl (R)-3-(5-(benzyloxy)-2-methylbenzofuran-3-carboxamido)pyrrolidine-1-carboxylate] | > 20000 nM |

Results, then the compound that gave them:

| IC50 | SMILES |
| --- | --- |
| < 1000 nM | Cc1ccccc1COc1ccc2oc(C)c(C(=O)N[C@H]3CCNC3)c2c1 [Cpd 083, (S)-2-methyl-5-((2-methylbenzyl)oxy)-N-(pyrrolidin-3-yl)benzofuran-3-carboxamide] |
| < 1000 nM | Cc1oc2ccc(OCc3ccccc3)cc2c1C(=O)NC1CNCC1(F)F (stereo not drawn) [Cpd 137, 5-(benzyloxy)-N-(4,4-difluoropyrrolidin-3-yl)-2-methylbenzofuran-3-carboxamide] |
| < 1000 nM | Cc1oc2ccc(OC(C)c3ccccc3)cc2c1C(=O)NC1(C(N)=O)CCC1 (single isomer, unassigned) [Cpd 343-En 1, N-(1-carbamoylcyclobutyl)-2-methyl-5-(1-phenylethoxy)benzofuran-3-carboxamide] |
| < 1000 nM | Cc1oc2ccc(OC(CO)c3ccccc3F)cc2c1C(=O)N[C@@H](CO)C(N)=O (single isomer, unassigned) [Cpd 335-Dia 2] |
| < 1000 nM | Cc1oc2ccc(OCc3ccccc3F)cc2c1C(=O)NC1CCNC1=O (stereo not drawn) [Cpd 129, 5-((2-fluorobenzyl)oxy)-2-methyl-N-(2-oxopyrrolidin-3-yl)benzofuran-3-carboxamide] |
| < 1000 nM | Cc1cc(CNC(=O)c2c(C)oc3ccc(OCc4ccccc4)cc23)no1 [Cpd 105, 5-(benzyloxy)-2-methyl-N-((5-methylisoxazol-3-yl)methyl)benzofuran-3-carboxamide] |
| < 1000 nM | Cc1oc2ccc(OCc3ccccc3)cc2c1C(=O)N[C@@H]1CCNC1=O [Cpd 070, 5-(benzyloxy)-2-methyl-N-(2-oxopyrrolidin-3-yl)benzofuran-3-carboxamide] |
| < 1000 nM | Cc1oc2ccc(OCc3ccccc3C(F)(F)F)cc2c1C(=O)O [Cpd 024, 2-methyl-5-((2-(trifluoromethyl)benzyl)oxy)benzofuran-3-carboxylic acid] |
| < 1000 nM | Cc1oc2ccc(OCc3ccccc3)cc2c1C(=O)O [Cpd 002, 5-(benzyloxy)-2-methylbenzofuran-3-carboxylic acid] |
| < 1000 nM | Cc1oc2ccc(OCc3ccccc3)cc2c1C(=O)NC1CCC(N(C)C)CC1 (stereo not drawn) [Cpd 186, 5-(benzyloxy)-N-(4-(dimethylamino)cyclohexyl)-2-methylbenzofuran-3-carboxamide] |
| < 1000 nM | Cc1oc2ccc(OCc3ccccc3)cc2c1C(=O)NC1CCOCC1 [Cpd 088, 5-(benzyloxy)-2-methyl-N-(tetrahydro-2H-pyran-4-yl)benzofuran-3-carboxamide] |
| < 1000 nM | Cc1oc2ccc(OC(CN(C)C)c3ccccc3)cc2c1C(=O)N[C@@H](CO)C(N)=O (single isomer, unassigned) [Cpd 347-En 2] |
| < 1000 nM | Cc1oc2ccc(OCc3ccccc3)cc2c1C(=O)NC1CCCNC1 (stereo not drawn) [Cpd 075, 5-(benzyloxy)-2-methyl-N-(piperidin-3-yl)benzofuran-3-carboxamide] |
| < 1000 nM | Cc1oc2ccc(OCc3ccccc3)c(C)c2c1C(=O)NC1CNCC1(F)F (single isomer, unassigned) [Cpd 299-En 1, 5-(benzyloxy)-N-(4,4-difluoropyrrolidin-3-yl)-2,4-dimethylbenzofuran-3-carboxamide] |
| < 1000 nM | Cc1oc2ccc(OCc3ccccc3)cc2c1C(=O)NC1CC(CO)(CO)C1 [Cpd 166, 5-(benzyloxy)-N-(3,3-bis(hydroxymethyl)cyclobutyl)-2-methylbenzofuran-3-carboxamide] |
| < 1000 nM | CCN1CCC(NC(=O)c2c(C)oc3ccc(OCc4ccccc4)cc23)C1=O (stereo not drawn) [Cpd 147, 5-(benzyloxy)-N-(1-ethyl-2-oxopyrrolidin-3-yl)-2-methylbenzofuran-3-carboxamide] |
| < 1000 nM | Cc1oc2ccc(OCc3ccccc3C(F)(F)F)cc2c1C(=O)NC1CNCC1(F)F (stereo not drawn) [Cpd 240, N-(4,4-difluoropyrrolidin-3-yl)-2-methyl-5-((2-(trifluoromethyl)benzyl)oxy)benzofuran-3-carboxamide] |
| < 1000 nM | Cc1oc2ccc(OCc3ccccc3)cc2c1C(=O)NC1CCN2CCCC12 (single isomer, unassigned) [Cpd 144-Dia 1, 5-(benzyloxy)-N-(hexahydro-1H-pyrrolizin-1-yl)-2-methylbenzofuran-3-carboxamide] |
| < 1000 nM | Cc1oc2ccc(OCc3ccccc3F)cc2c1C(=O)NC1(C(N)=O)CCC1 [Cpd 322, N-(1-carbamoylcyclobutyl)-5-((2-fluorobenzyl)oxy)-2-methylbenzofuran-3-carboxamide] |
| < 1000 nM | Cc1oc2ccc(OCc3ccccc3)cc2c1C(=O)N[C@@H]1CCN(C)C1 [Cpd 080, (R)-5-(benzyloxy)-2-methyl-N-(1-methylpyrrolidin-3-yl)benzofuran-3-carboxamide] |
| < 1000 nM | Cc1oc2ccc(OCc3ccccc3)cc2c1C(=O)NC1CN(C(=O)OC(C)(C)C)CCC1F (single isomer, unassigned) [Cpd 255-Dia 1, tert-butyl 3-(5-(benzyloxy)-2-methylbenzofuran-3-carboxamido)-4-fluoropiperidine-1-carboxylate] |
| < 1000 nM | COCC(Oc1ccc2oc(C)c(C(=O)N[C@@H](CO)C(N)=O)c2c1)c1ccccc1 (single isomer, unassigned) [Cpd 346-En 2] |
